The source of these data is ChEMBL document CHEMBL3865840, “Minimizing CYP2C9 Inhibition of Exposed-Pyridine NAMPT (Nicotinamide Phosphoribosyltransferase) Inhibitors” (J Med Chem, 2016).

The target of one data set is Cytochrome P450 2C9 (Homo sapiens, UniProt P11712).
A short description of data set [1]: Apparent permeability from basolateral to apical side in MDCK cells at 10 uM by LC/MS/MS analysis. It counts as ADME, cell-based, Canis lupus familiaris. Particulars: dog.
Data set [2] in a line: Apparent permeability from apical to basolateral side in MDCK cells at 10 uM by LC/MS/MS analysis. It counts as ADME, cell-based, Canis lupus familiaris. Particulars: dog.
A short description of data set [3]: Octanol-aqueous phosphate buffer distribution coefficient, log D of the compound at pH 7.4 after 1 hr by LC/MS/MS analysis. Type of data set: physicochemical.
For the next data set, the target named is Cytochrome P450 2C19 (Homo sapiens, UniProt P33261).
Cytochrome P450 2C19, sequence (P33261 whole entry): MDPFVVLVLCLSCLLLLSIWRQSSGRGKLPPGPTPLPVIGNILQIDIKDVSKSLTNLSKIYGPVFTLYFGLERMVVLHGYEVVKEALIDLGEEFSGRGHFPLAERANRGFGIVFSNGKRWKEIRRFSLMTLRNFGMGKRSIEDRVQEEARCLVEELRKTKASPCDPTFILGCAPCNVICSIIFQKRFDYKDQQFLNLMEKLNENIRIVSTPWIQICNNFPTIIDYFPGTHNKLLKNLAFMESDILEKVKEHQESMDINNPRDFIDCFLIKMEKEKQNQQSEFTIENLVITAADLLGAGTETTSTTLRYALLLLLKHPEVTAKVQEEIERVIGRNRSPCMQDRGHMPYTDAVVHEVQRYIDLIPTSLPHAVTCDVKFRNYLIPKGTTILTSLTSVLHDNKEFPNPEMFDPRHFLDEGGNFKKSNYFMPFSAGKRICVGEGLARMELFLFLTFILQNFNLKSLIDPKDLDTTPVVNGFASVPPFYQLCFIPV
The next data set addresses T1, Cytochrome P450 1A2 (Homo sapiens, UniProt P05177).
T1 sequence (P05177 whole entry): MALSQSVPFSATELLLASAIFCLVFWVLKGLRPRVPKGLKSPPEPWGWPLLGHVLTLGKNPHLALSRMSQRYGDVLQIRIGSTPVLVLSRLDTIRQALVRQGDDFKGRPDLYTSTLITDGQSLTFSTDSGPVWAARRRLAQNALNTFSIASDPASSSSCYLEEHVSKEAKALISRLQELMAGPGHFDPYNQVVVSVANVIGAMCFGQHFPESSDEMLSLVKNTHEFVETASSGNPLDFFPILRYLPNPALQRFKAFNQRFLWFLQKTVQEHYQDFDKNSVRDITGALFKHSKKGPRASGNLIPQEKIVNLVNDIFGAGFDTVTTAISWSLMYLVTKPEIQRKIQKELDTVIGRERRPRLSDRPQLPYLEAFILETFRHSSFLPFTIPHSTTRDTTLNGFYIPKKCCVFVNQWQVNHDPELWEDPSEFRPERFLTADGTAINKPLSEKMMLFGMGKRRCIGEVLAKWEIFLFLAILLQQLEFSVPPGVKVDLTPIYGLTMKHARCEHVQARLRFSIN

Data set [4] addresses T2, Cytochrome P450 3A4 (Homo sapiens, UniProt P08684). Nature of the data set: Time dependent inhibition of CYP3A4 in human liver microsomes assessed as substrate AUC shift using testosterone as substrate. More on the design: scale not given: the % may be the effect or the level left. It counts as ADME. (Liver microsomes are a subcellular fraction often used to study metabolism.)

Data set [5] addresses T2, Cytochrome P450 3A4. Nature of the data set: Time dependent inhibition of CYP3A4 in human liver microsomes assessed as substrate AUC shift using midazolam as substrate. Type of data set: ADME. More on the design: scale not given: the % may be the effect or the level left.

By IC50 is commonly meant the concentration that gives 50% inhibition. By Papp B→A is commonly meant the apparent permeability from the basolateral to the apical side of a cell layer. As usually defined, the Papp A→B is the apparent permeability from the apical to the basolateral side of a cell layer. One may read the logD as lipophilicity at a set pH, counting ionised and neutral species.

Each structure is given as a SMILES string.

Cytochrome P450 2C9, sequence (P11712 whole entry): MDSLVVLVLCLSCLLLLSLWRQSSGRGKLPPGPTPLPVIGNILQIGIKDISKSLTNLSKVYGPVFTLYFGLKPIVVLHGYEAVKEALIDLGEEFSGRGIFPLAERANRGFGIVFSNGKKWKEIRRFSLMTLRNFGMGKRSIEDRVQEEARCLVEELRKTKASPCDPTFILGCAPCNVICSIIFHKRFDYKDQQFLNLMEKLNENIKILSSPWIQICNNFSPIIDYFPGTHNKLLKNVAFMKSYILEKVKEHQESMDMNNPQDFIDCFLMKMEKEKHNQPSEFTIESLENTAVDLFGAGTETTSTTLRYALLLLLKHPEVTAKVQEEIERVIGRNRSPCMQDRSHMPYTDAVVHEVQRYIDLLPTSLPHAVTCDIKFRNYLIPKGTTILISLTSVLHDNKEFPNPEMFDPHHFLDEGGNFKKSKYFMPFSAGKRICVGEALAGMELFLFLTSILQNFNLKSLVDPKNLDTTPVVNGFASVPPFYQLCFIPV
T2 sequence (P08684 whole entry): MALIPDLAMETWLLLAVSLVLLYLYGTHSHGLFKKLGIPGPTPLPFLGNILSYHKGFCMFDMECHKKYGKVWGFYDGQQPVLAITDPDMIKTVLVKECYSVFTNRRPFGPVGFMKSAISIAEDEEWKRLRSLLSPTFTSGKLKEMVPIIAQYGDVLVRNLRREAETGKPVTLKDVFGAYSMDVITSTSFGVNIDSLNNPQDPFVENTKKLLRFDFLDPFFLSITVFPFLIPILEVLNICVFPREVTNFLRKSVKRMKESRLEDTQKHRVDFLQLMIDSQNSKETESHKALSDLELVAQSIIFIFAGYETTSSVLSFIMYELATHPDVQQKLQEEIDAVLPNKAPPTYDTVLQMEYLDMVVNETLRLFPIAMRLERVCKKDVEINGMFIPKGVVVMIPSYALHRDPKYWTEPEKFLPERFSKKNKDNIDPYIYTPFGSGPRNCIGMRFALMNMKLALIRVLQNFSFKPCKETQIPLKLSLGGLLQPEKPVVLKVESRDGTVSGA

With `CC(C)(C)OC(=O)N1CCC2(CC1)CC2CNC(=O)c1cc2ccncc2o1` (racemic), the IC50 at Cytochrome P450 2C9 is > 10 µM. Moreover, the Papp B→A at 10 µM in data set [1] amounted to 15 ×10⁻⁶ cm/s. For the same compound, the Papp A→B at 10 µM in data set [2] is 16 ×10⁻⁶ cm/s.
With `O=C(NCc1ccc(S(=O)(=O)c2cc(F)cc(F)c2)cn1)c1cc2ccncc2o1`, in data set [3], the logD at 1 h turned out to be 2.6.
`CC1(CC(=O)N2CCC3(CC2)CC3CNC(=O)N2Cc3ccncc3C2)COC1` (racemic): the IC50 against Cytochrome P450 2C9 was > 10 µM. Besides, the Papp B→A at 10 µM in data set [1] is 4 ×10⁻⁶ cm/s. Also, the Papp A→B at 10 µM in data set [2] worked out at 1.4 ×10⁻⁶ cm/s.
The corresponding values for `CC1(OC(=O)N2CCC3(CC2)CC3CNC(=O)N2Cc3ccncc3C2)CCC1` (racemic) are > 10 µM, 12 ×10⁻⁶ cm/s and 15 ×10⁻⁶ cm/s.
The like results for `CC(C)CC(=O)N1CCC2(CC1)CC2CNC(=O)N1Cc2ccncc2C1` (racemic) were, in that order, > 10 µM, 14 ×10⁻⁶ cm/s and 7.3 ×10⁻⁶ cm/s.
With `O=C(NCc1ccc(S(=O)(=O)C2CCCCC2)cc1)N1Cc2ccncc2C1`, in data set [3], the logD at 1 h came to 2.
On to `N#CN=C(NCCCCCCOc1ccc(Cl)cc1)Nc1ccncc1` [CHS-828], for which the values for the IC50 on Cytochrome P450 2C19 and against Cytochrome P450 1A2 were 0.63 µM and > 10 µM, respectively.
`CC1(CC(=O)N2CCC3(CC2)CC3CNC(=O)N2Cc3ccncc3C2)CCOCC1` (racemic): at Cytochrome P450 2C9, the IC50 is > 10 µM. Besides, in data set [1], the Papp B→A at 10 µM is 9.1 ×10⁻⁶ cm/s. Moreover, the Papp A→B at 10 µM in data set [2] is 1 ×10⁻⁶ cm/s.
On to `CC(C)CNC(=O)c1cc2cnccc2[nH]1`, for which the IC50 against Cytochrome P450 2C9 is > 10 µM. Also, the logD at 1 h in data set [3] came out at 1.7.
Compound `O=C(NCc1cccnc1)Nc1ccc(S(=O)(=O)c2ccccc2)cc1` showed a logD at 1 h in data set [3] of 2.7. Further, in data set [1], the Papp B→A at 10 µM was found to be 11 ×10⁻⁶ cm/s. Moreover, the Papp A→B at 10 µM in data set [2] amounted to 3.1 ×10⁻⁶ cm/s.
For the compound `O=C(NCc1ccc(C(=O)N2CCCC2)cc1)c1cc2cnccc2[nH]1`, half-maximal inhibition against Cytochrome P450 2C9 (IC50) required 0.45 µM. This compound also had a logD at 1 h in data set [3] of 1.6.
Turning to `CS(=O)(=O)c1ccc(CNC(=O)c2cc3cnccc3[nH]2)cc1`, on Cytochrome P450 2C9, it took 0.2 µM to reach half-maximal inhibition (IC50). The compound further returned a logD at 1 h in data set [3] of 0.8.
In data set [3], `Nc1ccc(CNC(=O)Nc2ccc(S(=O)(=O)c3ccccc3)cc2)cn1` returned a logD at 1 h of 2.7. For the same compound, the Activity on Cytochrome P450 3A4 [4] was 45%; on Cytochrome P450 3A4 [5] it was 34%. Besides, the Papp B→A at 10 µM in data set [1] came to 5.5 ×10⁻⁶ cm/s. Moreover, the Papp A→B at 10 µM in data set [2] amounted to 3 ×10⁻⁶ cm/s.
Consider `CN(C)C(=O)c1cccc(COc2ccc(CNC(=O)c3cc4cnccc4[nH]3)cc2)c1`, for which 0.4 µM corresponded to half-maximal inhibition at Cytochrome P450 2C9 (IC50). Further, the logD at 1 h in data set [3] came to 2.5.
